Values of other authors as cited in US20260185169A1, “MOLECULAR SIGNATURES TO PREDICT LONG-TERM LIVER FIBROSIS PROGRESSION” (THE BOARD OF REGENTS OF THE UNIVERSITY OF TEXAS SYSTEM, priority 2022, published 2026).

Test system: NASH patients with F1 to F3 fibrosis
Conditions: phase IIb CENTAUR trial, 1-year treatment; cited from earlier work

SMILES: CCCCOCCOc1ccc(-c2ccc3c(c2)/C=C(/C(=O)Nc2ccc([S@@+]([O-])Cc4cncn4CCC)cc2)CCCN3CC(C)C)cc1 [Cenicriviroc]
- histological fibrosis: improved histological fibrosis
